Measured values: patent US5968910A, “Compositions containing two or three inhibitors of different HIV reverse transcriptases” (priority 1994, dated 1999)
≈ marks a conversion by molar mass, not a printed value. Read-outs that look alike come from different tables or passages of the source.

Assays:
HIV-1(IIIB) = assay: Knock-out concentrations: breakthrough of HIV-1(IIIB)-induced cytopathicity in CEM cell cultures; assay type: cell-based; conditions: for activity at 0.1 µg/mL / activity at 0.5 µg/mL / activity at 2.5 µg/mL: Human immunodeficiency virus 1, IIIB, CCRF-CEM, read-out: HIV-1-induced cytopathicity in cell culture; for activity at 0.1 µg/mL: 0.1 μg/ml; for activity at 0.5 µg/mL: 0.5 μg/ml; for activity at 2.5 µg/mL: 2.5 μg/ml
Method in brief: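 CEM cells in RPMI 1640 with 10% FBS infected with HIV-1(IIIB) at ~1000× CCID50, subcultured every 3–4 days into fresh uninfected cells with drug held constant for 10 subcultivations (35 days), then ≥5 drug-free passages. Breakthrough scored by syncytium formation. Combinations used the two lowest single-drug starting concentrations.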

HIV-1/II(0.1) 100-Ile = assay: Sensitivity of mutant HIV-1 strain in CEM cell cultures; assay type: cell-based; conditions: Human immunodeficiency virus 1, CCRF-CEM; Table 5; read-out: EC50
Method in brief: (§1)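 Infect CEM cells (250,000 cells per ml) with virus at 100 CCID50/ml; add infected suspension to wells holding diluted compound; incubate 4 days, 37° C.; examine for syncytia.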

[1] = tested on: HIV-1/TIBO R82150 (100-Ile); assay: as above; assay type: cell-based; conditions: Human immunodeficiency virus 1, CCRF-CEM; CEM cells, Table 1; read-out: 50% Effective Concentration
Method in brief: as §1

HIV-1/I(0.1) 103-Asn = assay: as above; assay type: cell-based; conditions: Human immunodeficiency virus 1, CCRF-CEM; Table 5; read-out: EC50
Method in brief: as §1

[2] = tested on: HIV-1/V(0.1) 101-Ile + 141-Glu; assay: as above; assay type: cell-based; conditions: Human immunodeficiency virus 1, CCRF-CEM; Table 5; read-out: EC50
Method in brief: as §1

HIV-1/Pyr (181-Cys) = assay: as above; assay type: cell-based; conditions: Human immunodeficiency virus 1, CCRF-CEM; CEM cells, Table 1; read-out: 50% Effective Concentration
Method in brief: as §1

HIV-1/III(0.1) 103-Asn = assay: as above; assay type: cell-based; conditions: Human immunodeficiency virus 1, CCRF-CEM; Table 5; read-out: EC50
Method in brief: as §1

HIV-1/Nev (106-Ala) = assay: as above; assay type: cell-based; conditions: Human immunodeficiency virus 1, CCRF-CEM; CEM cells, Table 1; read-out: 50% Effective Concentration
Method in brief: as §1

HIV-1/IV(0.1) 103-Thr = assay: as above; assay type: cell-based; conditions: Human immunodeficiency virus 1, CCRF-CEM; Table 5; read-out: EC50
Method in brief: as §1

[3] = tested on: HIV-1/TSAO-m^3 T (138-Lys); assay: as above; assay type: cell-based; conditions: Human immunodeficiency virus 1, CCRF-CEM; CEM cells, Table 1; read-out: 50% Effective Concentration
Method in brief: as §1

HIV-1/V(0.5) 103-Asn = assay: as above; assay type: cell-based; conditions: Human immunodeficiency virus 1, CCRF-CEM; Table 5; read-out: EC50
Method in brief: as §1

[4] = tested on: HIV-1/TIBO R82913 (103-Asn); assay: as above; assay type: cell-based; conditions: Human immunodeficiency virus 1, CCRF-CEM; CEM cells, Table 1; read-out: 50% Effective Concentration
Method in brief: as §1

HIV-1 RT (WT) = HIV-1 RT (WT) (Human immunodeficiency virus type 1 group M subtype B, UniProt P03366); assay: biochemical
Method in brief: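 Recombinant HIV-1 RT incubated 30 min at 37° C with poly(C).oligo(dG) (0.1 mM) and [³H]dGTP (2.95 μM) in Tris pH 7.8 with 5 mM MgCl2, 150 mM KCl, DTT, glutathione, Triton X-100; 5-fold compound dilutions. Acid-insoluble radioactivity counted after TCA/pyrophosphate precipitation.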

HIV-1(IIIB) (WT) = assay: microbe, parasite or virus in culture; assay type: cell-based; conditions: Human immunodeficiency virus 1, IIIB, CCRF-CEM
Method in brief: as §1

[5] = 936 h, day 39 post infection, compound absent from day 35
[6] = 1008 h, day 42 post infection, compound absent from day 35
[7] = 1104 h, day 46 post infection, compound absent from day 35
[8] = 1176 h, day 49 post infection, compound absent from day 35
[9] = 1272 h, day 53 post infection, compound absent from day 35

For `Cc1occc1C(=S)Nc1ccc(Cl)c(C(=O)OC2CCCCC2)c1` [Compound III], the “prevention of virus breakthrough, fold more efficient than BHAP” value (HIV-1(IIIB)) was “at least 5 fold”, the “prevention of virus breakthrough, fold more efficient than nevirapine” value (HIV-1(IIIB)) was ≥ 25 fold and the activity at 0.1 µg/mL (HIV-1(IIIB); 96 h, day 4 post infection) was 0%. For the same compound, the activity at 0.5 µg/mL (HIV-1(IIIB); 96 h, day 4 post infection) was 0%, the activity at 2.5 µg/mL (HIV-1(IIIB); 96 h, day 4 post infection) was 0% and the activity at 0.1 µg/mL (HIV-1(IIIB); 192 h, day 8 post infection) was 0%. It also gave an activity at 0.5 µg/mL (HIV-1(IIIB); 192 h, day 8 post infection) of 0%, an activity at 2.5 µg/mL (HIV-1(IIIB); 192 h, day 8 post infection) of 0% and an activity at 0.1 µg/mL (HIV-1(IIIB); 264 h, day 11 post infection) of 0%. For the same compound, the activity at 0.5 µg/mL (HIV-1(IIIB); 264 h, day 11 post infection) was 0%, the activity at 2.5 µg/mL (HIV-1(IIIB); 264 h, day 11 post infection) was 0% and the activity at 0.1 µg/mL (HIV-1(IIIB); 336 h, day 14 post infection) was 6.2%. For the same compound, the activity at 0.5 µg/mL (HIV-1(IIIB); 336 h, day 14 post infection) was 0%, the activity at 2.5 µg/mL (HIV-1(IIIB); 336 h, day 14 post infection) was 0% and the activity at 0.1 µg/mL (HIV-1(IIIB); 408 h, day 17 post infection) was 50%. For the same compound, the activity at 0.5 µg/mL (HIV-1(IIIB); 408 h, day 17 post infection) was 0%, the activity at 2.5 µg/mL (HIV-1(IIIB); 408 h, day 17 post infection) was 0% and the activity at 0.1 µg/mL (HIV-1(IIIB); 504 h, day 21 post infection) was 100%. It also gave an activity at 0.5 µg/mL (HIV-1(IIIB); 504 h, day 21 post infection) of 0%, an activity at 2.5 µg/mL (HIV-1(IIIB); 504 h, day 21 post infection) of 0% and an activity at 0.1 µg/mL (HIV-1(IIIB); 600 h, day 25 post infection) of 100%. It also gave an activity at 0.5 µg/mL (HIV-1(IIIB); 600 h, day 25 post infection) of 0%, an activity at 2.5 µg/mL (HIV-1(IIIB); 600 h, day 25 post infection) of 0% and an activity at 0.1 µg/mL (HIV-1(IIIB); 672 h, day 28 post infection) of 100%. It also gave an activity at 0.5 µg/mL (HIV-1(IIIB); 672 h, day 28 post infection) of 0%, an activity at 2.5 µg/mL (HIV-1(IIIB); 672 h, day 28 post infection) of 0% and an activity at 0.1 µg/mL (HIV-1(IIIB); 768 h, day 32 post infection) of 100%. It also gave an activity at 0.5 µg/mL (HIV-1(IIIB); 768 h, day 32 post infection) of 0%, an activity at 2.5 µg/mL (HIV-1(IIIB); 768 h, day 32 post infection) of 0% and an activity at 0.1 µg/mL (HIV-1(IIIB); 840 h, day 35 post infection) of 100%. For the same compound, the activity at 0.5 µg/mL (HIV-1(IIIB); 840 h, day 35 post infection) was 0%, the activity at 2.5 µg/mL (HIV-1(IIIB); 840 h, day 35 post infection) was 0% and the activity at 0.1 µg/mL (HIV-1(IIIB); [5]) was 100%. It also gave an activity at 0.5 µg/mL (HIV-1(IIIB); [5]) of 0%, an activity at 2.5 µg/mL (HIV-1(IIIB); [5]) of 0% and an activity at 0.1 µg/mL (HIV-1(IIIB); [6]) of 100%. The activity at 0.5 µg/mL (HIV-1(IIIB); [6]) was 0%, the activity at 2.5 µg/mL (HIV-1(IIIB); [6]) was 0% and the activity at 0.1 µg/mL (HIV-1(IIIB); [7]) was 100%. It also gave an activity at 0.5 µg/mL (HIV-1(IIIB); [7]) of 0%, an activity at 2.5 µg/mL (HIV-1(IIIB); [7]) of 0% and an activity at 0.1 µg/mL (HIV-1(IIIB); [8]) of 100%. For the same compound, the activity at 0.5 µg/mL (HIV-1(IIIB); [8]) was 0%, the activity at 2.5 µg/mL (HIV-1(IIIB); [8]) was 0% and the activity at 0.1 µg/mL (HIV-1(IIIB); [9]) was 100%. For the same compound, the activity at 0.5 µg/mL (HIV-1(IIIB); [9]) was 0%, the activity at 2.5 µg/mL (HIV-1(IIIB); [9]) was 0% and the “concentration at which virus emerged (virus breakthrough)” value (HIV-1(IIIB); tested at 0.1, 0.5 and 2.5 μg/ml, 35 days) was 0.1 µg/mL. For the same compound, the EC50 (HIV-1/II(0.1) 100-Ile) was 0.87 mg/L (≈ 2.3 µM), the EC50 [1] was 0.17 mg/L (≈ 0.45 µM) and the EC50 (HIV-1/I(0.1) 103-Asn) was 0.3 mg/L (≈ 0.794 µM). The EC50 [2] was 0.05 mg/L (≈ 0.132 µM), the EC50 (HIV-1/Pyr (181-Cys)) was 0.07 mg/L (≈ 0.185 µM) and the EC50 (HIV-1/III(0.1) 103-Asn) was 0.16 mg/L (≈ 0.423 µM). The EC50 (HIV-1/Nev (106-Ala)) was 0.057 mg/L (≈ 0.151 µM), the EC50 (HIV-1/IV(0.1) 103-Thr) was 1.1 mg/L (≈ 2.91 µM) and the EC50 [3] was 0.035 mg/L (≈ 0.0926 µM). The EC50 (HIV-1/V(0.5) 103-Asn) was 0.85 mg/L (≈ 2.25 µM), the EC50 [4] was 0.7 mg/L (≈ 1.85 µM) and the IC50 (HIV-1 RT (WT); range stated for the compounds together, poly(C).oligo(dG), 2.95 μM [2,8-3H]dGTP, read-out: IC50 on recombinant HIV-1 RT) was 0.0476 to 0.204 µM. It also gave an IC50 (HIV-1 RT (WT); substrate [2,8-3H]dGTP 2.95 μM, template poly(rC)oligo(dG), read-out: IC50, anti-HIV-1 RT (WT) activity (converted)) of 0.146 µM, an EC50 (HIV-1(IIIB) (WT); CEM cells, Table 1, read-out: 50% Effective Concentration) of 0.004 mg/L (≈ 0.0106 µM) and an EC50 (HIV-1(IIIB) (WT); HIV-1 (III8), Table 5, read-out: EC50) of 0.004 mg/L (≈ 0.0106 µM). It also gave an IC50 (HIV-1(IIIB) (WT); range stated for Compounds I-V together, read-out: 50% inhibitory concentration, HIV-1(IIIB) replication in CEM cells) of 0.004 to 0.05 mg/L (≈ 0.0106 to 0.132 µM).
